From ChEMBL document CHEMBL4393656, “Cationic biaryl 1,2,3-triazolyl peptidomimetic amphiphiles targeting Clostridioides (Clostridium) difficile: Synthesis, antibacterial evaluation and an in vivo C. difficile infection model” (Eur J Med Chem, 2019)

Legend:
Acinetobacter baumannii = assay: Growth inhibition of Acinetobacter baumannii ATCC 19606 incubated for 18 hrs without shaking by absorbance based monochromator plate reader analysis; assay type: organism-based, ATCC 19606 = CIP 70.34 = JCM 6841; conditions: in vitro
Pseudomonas aeruginosa = assay: Growth inhibition of Pseudomonas aeruginosa ATCC 27853 incubated for 18 hrs; assay type: organism-based
Escherichia coli = assay: Growth inhibition of Escherichia coli ATCC 25922 incubated for 18 hrs; assay type: organism-based
Streptococcus pneumoniae = assay: Growth inhibition of Streptococcus pneumoniae ATCC 49619 incubated in MHB medium with lysed horse blood and 5% CO2 for 24 hrs; assay type: organism-based
[1] = Cytotoxicity against HEK293 cells assessed as decrease in cell viability after 20 hrs by resazurin dye-based fluorescence assay; conditions: human
Staphylococcus aureus [2] = assay: Growth inhibition of methicillin-resistant Staphylococcus aureus ATCC 43300 incubated for 18 hrs; assay type: organism-based
Klebsiella pneumoniae = assay: Growth inhibition of Klebsiella pneumoniae ATCC 700603 incubated for 18 hrs; assay type: organism-based
Staphylococcus aureus [3] = assay: Growth inhibition of Staphylococcus aureus ATCC 29213 incubated in MHB broth for 24 hrs; assay type: organism-based
Clostridioides difficile [4] = assay: Antibacterial activity against Clostridium difficile ATCC 700057 incubated for 2 to 4 hrs in pre-reduced brucella broth supplemented with haemin/vitamin K and further incubation in anaerobic condition for 48 hrs; assay type: functional
Clostridioides difficile [5] = assay: Antibacterial activity against Clostridium difficile NSW132 RT027 incubated for 2 to 4 hrs in pre-reduced brucella broth supplemented with haemin/vitamin K and further incubation in anaerobic condition for 48 hrs; assay type: functional
Enterococcus faecalis = assay: Growth inhibition of Enterococcus faecalis ATCC 29212 incubated in MHB broth for 24 hrs; assay type: organism-based

Row | Molecule | MIC (Acinetobacter baumannii) [µg/mL] | MIC (Pseudomonas aeruginosa) [µg/mL] | MIC (Escherichia coli) [µg/mL] | MIC (Streptococcus pneumoniae) [µg/mL] | CC50 at 20 h [1] [µg/mL] | MIC (Staphylococcus aureus [2]) [µg/mL] | MIC (Klebsiella pneumoniae) [µg/mL] | MIC (Staphylococcus aureus [3]) [µg/mL] | MIC (Clostridioides difficile [4]) [µg/mL] | MIC (Clostridioides difficile [5]) [µg/mL] | MIC (Enterococcus faecalis) [µg/mL]
1 | CC(C)CCOc1ccccc1-c1ccccc1OCc1cn([C@H](CCCCN)C(=O)N[C@H](CCCNC(=N)N)Cn2cc(C3CCCCC3)nn2)nn1.Cl.Cl | 8 | 16 | 8 | 32 | 19.8 | 4 | 16 | 16 | 64 | 128 | 16
2 | CC(C)CCOc1ccc2ccccc2c1-c1c(OCc2cn([C@H](CCCCN)C(=O)N[C@H](CCCNC(=N)N)C(=O)N3CCCCC3)nn2)ccc2ccccc12.Cl.Cl | 8 | 16 | 32 | 8 | 16.8 | 2 | 16 | 8 | 16 | 32 | 8
3 | CC(C)CCOc1ccccc1-c1ccccc1OCc1cn([C@H](CCCNC(=N)N)C(=O)Nc2ccccc2)nn1.Cl | > 32 | > 32 | > 32 | 2 | 21.6 | 8 | > 32 | 2 | 16 | 32 | 2
4 | CC(C)CCOc1ccccc1-c1ccccc1OCc1cn([C@H](CCCCN)C(=O)NCc2ccccc2)nn1.Cl | 32 | 32 | > 32 | 8 | > 32 |  | > 32 | 8 | 32 | 32 | 16
5 | CC(C)CCOc1ccc2ccccc2c1-c1c(OCC(=O)N[C@H](CCCNC(=N)N)C(=O)NCCc2ccccc2)ccc2ccccc12.Cl | > 32 | > 32 | > 32 | 2 | > 32 | 4 | > 32 | 2 | 32 | 32 | 4
6 | CC(C)CCOc1ccccc1-c1ccccc1OCc1cn([C@H](CCCCN)C(=O)N[C@H](CCCNC(=N)N)Cn2cc(CC3CCCCC3)nn2)nn1.Cl.Cl | 8 | 32 | 8 | 8 | 19.1 | 2 | 16 | 4 | 16 | 16 | 4
7 | CC(C)CCOc1ccccc1-c1ccccc1OCc1cn([C@H](CCCNC(=N)N)C(=O)NCC2CCCCC2)nn1.Cl | > 32 | > 32 | > 32 | 8 | 16.9 | 4 | > 32 | 4 | 32 | 64 | 8
8 | CC(C)CCOc1ccccc1-c1ccccc1OCc1cn([C@H](CCCCN)C(=O)NCCc2ccccc2)nn1.Cl | 32 | > 32 | > 32 | 8 | > 32 | 8 | > 32 | 8 | 32 | 32 | 8
9 | CC(C)CCOc1ccc2ccccc2c1-c1c(OCc2cn([C@H](CCCNC(=N)N)C(=O)N[C@H](CCCCN)Cn3cc(CCc4ccccc4)nn3)nn2)ccc2ccccc12.Cl.Cl | 32 | 32 | > 32 | 2 | > 32 | 4 | > 32 | 4 | 16 | 16 | 4
10 | CC(C)CCOc1ccccc1-c1ccccc1OCc1cn([C@H](CCCNC(=N)N)C(=O)N[C@H](CCCCN)Cn2cc(Cc3ccccc3)nn2)nn1.Cl.Cl | 32 | 16 | > 32 | 4 | > 32 | 8 | 32 | 8 | 32 | 16 | 8
11 | CC(C)CCOc1ccccc1-c1ccccc1OCc1cn([C@H](CCCNC(=N)N)C(=O)NCCc2ccccc2)nn1.Cl | 32 | > 32 | > 32 | 4 | 17.9 | 8 | > 32 | 2 | 8 | 32 | 4
12 | CCCN(CC1CC1)C(=O)[C@@H](CCCNC(=N)N)n1cc(COc2ccccc2-c2ccccc2OCCC(C)C)nn1.Cl | > 32 | > 32 | > 32 | 2 | 19.7 | 8 | > 32 | 4 | 16 | 16 | 4
13 | CC(C)CCOc1ccccc1-c1ccccc1OCc1cn([C@H](CCCNC(=N)N)C(=O)N[C@H](CCCCN)Cn2cc(C3CCCCC3)nn2)nn1.Cl.Cl | 16 | 8 | 16 | 2 | > 32 | 4 | 16 | 8 | 8 | 16 | 8
14 | CC(C)CCOc1ccccc1-c1ccccc1OCc1cn([C@H](CCCCN)C(=O)NC2CCCCC2)nn1.Cl | 32 | 32 | > 32 | 8 | > 32 | 8 | > 32 | 8 | 16 | 32 | 16
15 | CC(C)CCOc1ccc2ccccc2c1-c1c(OCC(=O)N[C@H](CCCNC(=N)N)C(=O)NCCc2ccc(F)cc2)ccc2ccccc12.Cl | > 32 | > 32 | > 32 | > 128 | > 32 | 4 | > 32 | > 128 | > 128 | 64 | > 128
16 | COc1cc(NC(=O)[C@@H](CCCNC(=N)N)n2cc(COc3ccccc3-c3ccccc3OCCC(C)C)nn2)cc(OC)c1.Cl | > 32 | > 32 | > 32 | 4 | 12.2 | 8 | > 32 | 4 | 32 | 32 | 4
17 | CC(C)CCOc1ccc2ccccc2c1-c1c(OCc2cn([C@H](CCCCN)C(=O)N[C@H](CCCNC(=N)N)Cn3cc(CC4CCCCC4)nn3)nn2)ccc2ccccc12.Cl.Cl | 8 | 32 | > 32 | 4 | 16.6 | 2 | > 32 | 4 | 16 | 16 | 4
18 | CC(C)CCOc1ccccc1-c1ccccc1OCc1cn([C@H](CCCNC(=N)N)C(=O)NCc2ccc(C(F)(F)F)cc2)nn1.Cl | > 32 | > 32 | > 32 | 32 | > 32 |  | > 32 | 16 | 128 | 128 | 16
19 | CC(C)CCOc1ccccc1-c1ccccc1OCc1cn([C@H](CCCNC(=N)N)C(=O)NC2CC2)nn1.Cl | > 32 | > 32 | > 32 | 8 | 20 |  | > 32 | 16 | 64 | 128 | 32
20 | CC(C)CCOc1ccccc1-c1ccccc1OCc1cn([C@H](CCCNC(=N)N)C(=O)NCc2cc(F)cc(F)c2)nn1.Cl | > 32 | > 32 | > 32 | 16 | 22.9 |  | > 32 | 8 | 32 | 32 | 8
21 | COLISTIN | 0.25 | 0.25 | 0.125 |  |  |  | 0.25 |  |  |  | 
